“And” between values parts separate entries of the source, which are not always exact repeats. Equal values may be shown once. Toxic doses and inconclusive results are not listed.
Test system: L1210 leukemia ip in BDF1 mice, survival T/C
Assay: NCI In Vivo Anticancer Drug Screen. Data for tumor model L1210 Leukemia (intraperitoneal) in B6D2F1 (BDF1) mice
Conditions: endpoint: mean survival time, higher = longer survival
Outline: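 Survival endpoint. Drug-treated group vs vehicle group, expressed as T divided by C. Tumor passaged by transplantation.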

[1] = dose: 100.0 mg/kg/injection, schedule: Q04DX003 (ip), vehicle: Klucel (hydroxypropylcellulose) (HPC)
[2] = dose: 200.0 mg/kg/injection, schedule: Q04DX003 (ip), vehicle: Klucel (hydroxypropylcellulose) (HPC)
[3] = dose: 400.0 mg/kg/injection, schedule: Q04DX003 (ip), vehicle: Klucel (hydroxypropylcellulose) (HPC)
[4] = dose: 100.0 mg/kg/injection, schedule: Q04DX002 (ip), vehicle: saline with Tween-80
[5] = dose: 200.0 mg/kg/injection, schedule: Q04DX002 (ip), vehicle: saline with Tween-80
[6] = dose: 400.0 mg/kg/injection, schedule: Q04DX002 (ip), vehicle: saline with Tween-80
[7] = dose: 100.0 mg/kg/injection, schedule: Q01DX001 (ip), vehicle: saline with Tween-80
[8] = dose: 200.0 mg/kg/injection, schedule: Q01DX001 (ip), vehicle: saline with Tween-80
[9] = dose: 100.0 mg/kg/injection, schedule: Q04DX003 (ip), vehicle: other
[10] = dose: 200.0 mg/kg/injection, schedule: Q04DX003 (ip), vehicle: other
[11] = dose: 25.0 mg/kg/injection, schedule: Q01DX009 (ip), vehicle: saline
[12] = dose: 50.0 mg/kg/injection, schedule: Q01DX009 (ip), vehicle: saline
[13] = dose: 100.0 mg/kg/injection, schedule: Q01DX009 (ip), vehicle: saline with Tween-80
[14] = dose: 200.0 mg/kg/injection, schedule: Q01DX009 (ip), vehicle: saline with Tween-80
[15] = dose: 400.0 mg/kg/injection, schedule: Q01DX001 (ip), vehicle: saline with Tween-80
[16] = dose: 400.0 mg/kg/injection, schedule: Q01DX009 (ip), vehicle: saline with Tween-80

## O=c1cn[nH]c(=O)[nH]1
dose: 62.5 mg/kg/injection, schedule: Q01DX009 (ip), vehicle: saline
  T/C: 105 % of control and 107 % of control
dose: 62.5 mg/kg/injection, schedule: Q01DX010 (ip), vehicle: saline
  T/C: 97 % of control and 102 % of control
dose: 110.1 mg/kg/injection, schedule: Q01DX Z (ip), vehicle: carboxymethylcellulose (CMC)
  T/C: 107 % of control
dose: 125.0 mg/kg/injection, schedule: Q01DX009 (ip), vehicle: saline
  T/C: 103 % of control and 118 % of control
dose: 125.0 mg/kg/injection, schedule: Q01DX010 (ip), vehicle: saline
  T/C: 94 % of control and 101 % of control
dose: 132.0 mg/kg/injection, schedule: Q01DX Z (ip), vehicle: methylcellulose (MC)
  T/C: 97 % of control
dose: 200.0 mg/kg/injection, schedule: Q01DX Z (ip), vehicle: methylcellulose (MC)
  T/C: 111 % of control
dose: 220.2 mg/kg/injection, schedule: Q01DX Z (ip), vehicle: carboxymethylcellulose (CMC)
  T/C: 121 % of control
dose: 250.0 mg/kg/injection, schedule: Q01DX009 (ip), vehicle: saline
  T/C: 100 % of control and 107 % of control
dose: 250.0 mg/kg/injection, schedule: Q01DX010 (ip), vehicle: saline
  T/C: 108 % of control and 111 % of control
dose: 300.0 mg/kg/injection, schedule: Q01DX Z (ip), vehicle: methylcellulose (MC)
  T/C: 111 % of control
dose: 440.4 mg/kg/injection, schedule: Q01DX Z (ip), vehicle: carboxymethylcellulose (CMC)
  T/C: 113 % of control
dose: 450.0 mg/kg/injection, schedule: Q01DX Z (ip), vehicle: methylcellulose (MC)
  T/C: 105 % of control
dose: 500.0 mg/kg/injection, schedule: Q01DX009 (ip), vehicle: saline
  T/C: 112 % of control and 120 % of control
dose: 500.0 mg/kg/injection, schedule: Q01DX010 (ip), vehicle: saline
  T/C: 117 % of control and 118 % of control
dose: 675.0 mg/kg/injection, schedule: Q01DX Z (ip), vehicle: methylcellulose (MC)
  T/C: 124 % of control
dose: 880.8 mg/kg/injection, schedule: Q01DX Z (ip), vehicle: carboxymethylcellulose (CMC)
  T/C: 121 % of control
dose: 1011.0 mg/kg/injection, schedule: Q01DX Z (ip), vehicle: methylcellulose (MC)
  T/C: 109 % of control

## O=C(c1ccc([N+](=O)[O-])cc1)c1ccccn1
dose: 100.0 mg/kg/injection, schedule: Q01DX009 (ip), vehicle: Klucel (hydroxypropylcellulose) (HPC)
  T/C: 103 % of control
[1]
  T/C: 101 % of control
dose: 200.0 mg/kg/injection, schedule: Q01DX009 (ip), vehicle: Klucel (hydroxypropylcellulose) (HPC)
  T/C: 102 % of control
[2]
  T/C: 93 % of control
dose: 400.0 mg/kg/injection, schedule: Q01DX009 (ip), vehicle: Klucel (hydroxypropylcellulose) (HPC)
  T/C: 115 % of control
[3]
  T/C: 92 % of control

## COc1ccc(C=Nc2ccc(C(=O)O)cc2)cc1
[4]
  T/C: 100 % of control
[5]
  T/C: 110 % of control
[6]
  T/C: 89 % of control

## CC1=C(Sc2ccccc2)c2ccccc2C1
dose: 100.0 mg/kg/injection, schedule: Q01DX001 (ip), vehicle: saline
  T/C: 86 % of control
dose: 200.0 mg/kg/injection, schedule: Q01DX001 (ip), vehicle: saline
  T/C: 91 % of control
dose: 400.0 mg/kg/injection, schedule: Q01DX001 (ip), vehicle: saline
  T/C: 91 % of control

## NC(=O)c1ccccc1I
dose: 75.0 mg/kg/injection, schedule: Q01DX001 (ip), vehicle: saline
  T/C: 101 % of control
dose: 75.0 mg/kg/injection, schedule: Q01DX009 (ip), vehicle: saline
  T/C: 103 % of control
dose: 150.0 mg/kg/injection, schedule: Q01DX001 (ip), vehicle: saline
  T/C: 96 % of control
dose: 150.0 mg/kg/injection, schedule: Q01DX009 (ip), vehicle: saline
  T/C: 86 % of control
dose: 300.0 mg/kg/injection, schedule: Q01DX001 (ip), vehicle: saline
  T/C: 96 % of control
dose: 300.0 mg/kg/injection, schedule: Q01DX009 (ip), vehicle: saline
  T/C: 100 % of control

## CS(=O)(=O)O.[Cu+2]
dose: 5.0 mg/kg/injection, schedule: Q01DX001 (ip), vehicle: saline
  T/C: 93 % of control
dose: 10.0 mg/kg/injection, schedule: Q01DX001 (ip), vehicle: saline
  T/C: 96 % of control

## CC(C)(C)NC/C(=C\c1ccccc1)S(=O)(=O)c1ccccc1[N+](=O)[O-]
dose: 50.0 mg/kg/injection, schedule: Q01DX001 (ip), vehicle: saline with Tween-80
  T/C: 91 % of control
[7]
  T/C: 93 % of control
[8]
  T/C: 95 % of control

## COc1ccnc2ccc(C)c([N+](=O)[O-])c12
[9]
  T/C: 96 % of control
[10]
  T/C: 90 % of control

## NCCCCS(=O)(=O)Nc1ccc(Nc2c3ccccc3nc3cc([N+](=O)[O-])ccc23)cc1
dose: 2.1 mg/kg/injection, schedule: Q01DX009 (ip), vehicle: saline
  T/C: 117 % of control
dose: 3.1 mg/kg/injection, schedule: Q01DX009 (ip), vehicle: saline
  T/C: 121 % of control
dose: 16.0 mg/kg/injection, schedule: Q01DX009 (ip), vehicle: saline
  T/C: 123 % of control
[11]
  T/C: 158 % of control
dose: 25.0 mg/kg/injection, schedule: Q01DX009 (sc), vehicle: saline
  T/C: 111 % of control
[12]
  T/C: 228 % of control
dose: 50.0 mg/kg/injection, schedule: Q01DX009 (sc), vehicle: saline
  T/C: 118 % of control
dose: 100.0 mg/kg/injection, schedule: Q01DX009 (ip), vehicle: saline
  T/C: 266 % of control
dose: 100.0 mg/kg/injection, schedule: Q01DX009 (sc), vehicle: saline
  T/C: 175 % of control
dose: 200.0 mg/kg/injection, schedule: Q01DX009 (sc), vehicle: saline
  T/C: 163 % of control

## CCCCCCCCCCS(=O)(=O)CCS(=O)(=O)CCCCCCCCCC
[1]
  T/C: 97 % of control
[2]
  T/C: 95 % of control
[3]
  T/C: 97 % of control

## CCCCNc1ccc([N+](=O)[O-])cc1[N+](=O)[O-]
dose: 50.0 mg/kg/injection, schedule: Q01DX009 (ip), vehicle: other
  T/C: 104 % of control
dose: 100.0 mg/kg/injection, schedule: Q01DX009 (ip), vehicle: other
  T/C: 93 % of control
[9]
  T/C: 104 % of control
dose: 200.0 mg/kg/injection, schedule: Q01DX009 (ip), vehicle: other
  T/C: 104 % of control
[10]
  T/C: 96 % of control

## CC(=O)OC1C(C)OC(n2cnc3c(=O)[nH]cnc32)C1OC(C)=O (centres undefined)
dose: 50.0 mg/kg/injection, schedule: Q01DX001 (ip), vehicle: carboxymethylcellulose (CMC)
  T/C: 106 % of control
dose: 100.0 mg/kg/injection, schedule: Q01DX001 (ip), vehicle: carboxymethylcellulose (CMC)
  T/C: 106 % of control
dose: 200.0 mg/kg/injection, schedule: Q01DX001 (ip), vehicle: carboxymethylcellulose (CMC)
  T/C: 108 % of control
dose: 400.0 mg/kg/injection, schedule: Q01DX001 (ip), vehicle: carboxymethylcellulose (CMC)
  T/C: 101 % of control

## Nc1ccc(C(=O)OCCCN2CCCCC2)cc1
dose: 12.5 mg/kg/injection, schedule: Q01DX009 (ip), vehicle: saline
  T/C: 101 % of control
[11]
  T/C: 97 % of control
[12]
  T/C: 101 % of control

## Cc1nc(N)nc(N)c1CCCc1ccccc1
dose: 1.56 mg/kg/injection, schedule: Q01DX001 (ip), vehicle: saline with Tween-80
  T/C: 93 % of control
dose: 3.13 mg/kg/injection, schedule: Q01DX001 (ip), vehicle: saline with Tween-80
  T/C: 93 % of control
dose: 6.25 mg/kg/injection, schedule: Q01DX001 (ip), vehicle: saline with Tween-80
  T/C: 95 % of control and 97 % of control

## Cc1ccc(C)c(NC(=O)Oc2ccc(Cl)cc2C)c1
[7]
  T/C: 100 % of control and 91 % of control
[13]
  T/C: 86 % of control
[4]
  T/C: 92 % of control
[8]
  T/C: 98 % of control
[14]
  T/C: 100 % of control and 89 % of control
[5]
  T/C: 92 % of control
[15]
  T/C: 94 % of control and 100 % of control
[16]
  T/C: 99 % of control and 100 % of control
[6]
  T/C: 89 % of control

## OCC(O)COc1ccc(Cl)cc1 (centres undefined)
[7]
  T/C: 98 % of control
[13]
  T/C: 100 % of control and 110 % of control
dose: 100.0 mg/kg/injection, schedule: Q04DX003 (ip), vehicle: saline with Tween-80
  T/C: 98 % of control and 100 % of control
[8]
  T/C: 105 % of control
[14]
  T/C: 96 % of control and 100 % of control
dose: 200.0 mg/kg/injection, schedule: Q04DX003 (ip), vehicle: saline with Tween-80
  T/C: 96 % of control and 103 % of control
[15]
  T/C: 88 % of control
[16]
  T/C: 94 % of control
dose: 400.0 mg/kg/injection, schedule: Q04DX003 (ip), vehicle: saline with Tween-80
  T/C: 100 % of control

From PubChem BioAssay AID248 (DTP/NCI, 2004)
